Assay [1] concerns mice subjected to chronic mild stress (CMS). As to the kind of experiment: Alcohol consumption in mice subjected to chronic mild stress (CMS). Particulars: for alcohol consumption: mice subjected to chronic mild stress (CMS); for CB2R agonist or antagonist effect on alcohol consumption: normal mice not subjected to CMS. The class given is in vivo, mouse. The text has this:
The involvement of brain neuronal CB2Rs in drug abuse and depression is studied by using the conditional ko mice of the invention. Mice preferring alcohol have reduced Cnr2 gene expression in the ventral midbrain whereas the Cnr2 gene expression is unaltered in the ventral midbrain region of mice with little or no preference for alcohol. […] This CB2R agonist or antagonist effect is absent in normal mice that were not subjected to CMS.

A further assay deals with T1, CB2R (Mus musculus, UniProt P47936).
T1 construct: from tissue; host or cells: living mouse; brain (microglia and neurons) after stroke
T1 sequence (P47936 whole entry): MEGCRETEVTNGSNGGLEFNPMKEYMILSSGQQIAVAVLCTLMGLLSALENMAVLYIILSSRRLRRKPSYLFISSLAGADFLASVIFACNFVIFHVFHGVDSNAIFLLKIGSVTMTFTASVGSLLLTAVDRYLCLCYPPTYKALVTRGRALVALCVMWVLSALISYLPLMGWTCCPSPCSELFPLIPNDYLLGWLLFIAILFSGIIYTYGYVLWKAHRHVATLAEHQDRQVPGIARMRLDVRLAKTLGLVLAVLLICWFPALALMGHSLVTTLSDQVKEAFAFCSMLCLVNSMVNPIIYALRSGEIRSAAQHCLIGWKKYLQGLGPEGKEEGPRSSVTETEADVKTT
As to the kind of experiment: Early and pretreatment with CB2R agonist in stroke. The class given is in vivo. The source says:
Optimal treatment time with CB2R agonist for anti-inflammation and neurodegeneration is studied after stroke. […] Using Cx3crl-Cnr2 and Nestin-Cnr2 pre-clinical mouse models of stroke timed experiments by administering the commercially available CB2R agonist […] at specific time points post infarct at selected doses provides data to evaluate compounds for this use. The CB2R molecular pathways and partners in stroke studied in microglia and neural progenitor cells (NPC) on different post stroke days are evaluated when various compounds are tested. Such microglia and neuron specific CB2Rs-KO stroke behavioral models allow precise mapping of CB2R selective agonist (e.g. JWH133) for potential protective roles in stroke.

The next assay has as its system BTBR mice. As to the kind of experiment: Behavioral effects of THC in a mouse model of depression (time and number of immobility). The assay is classed as in vivo. Particulars: BTBR mice (autism-like phenotype) compared to control mice; FIG. 1. The text has this: FIG. 1. Behavioral effects THC in a mouse model of depression: The time and number of immobility in the test is the index measured.

A further assay concerns Cnr2 gene transcripts. As to the kind of experiment: Expression of Cnr2 gene transcripts in rodents treated with abused substances. The assay is classed as in vivo. Particulars: treated animals in comparison to controls.

6 compounds from patent US20190029238A1, “[…]” (William Paterson University Of New Jersey, priority 2015, published 2019) can be followed below.

For the compound `COc1ccc(C(=O)c2c(C)n(CCN3CCOCC3)c3cc(I)ccc23)cc1` [AM630], in assay [1], the alcohol consumption result is on record as “reduces the stress-induced increase in alcohol consumption” and the “CB2R agonist or antagonist effect on alcohol consumption” value was “absent”.
Turning to `CN1CCCCC1Cn1cc(C(=O)c2cc([N+](=O)[O-])ccc2I)c2ccccc21` (stereo not shown) [AM1241], on CB2R, the brain infarct volumes entry is recorded as “significantly reduce” and the neurological deficits result is reported as “significantly reduce”.
Take `CCCC(C)(C)c1ccc2c(c1)OC(C)(C)[C@@H]1CC=C(C)C[C@@H]21` [JWH133]: at CB2R, the brain infarct volumes result is recorded as “significantly reduce” and the neurological deficits result is “significantly reduce”.
`CCCn1c(C)c(C(=O)c2cccc3ccccc23)c2ccccc21` [JWH 015]: in assay [1], the alcohol consumption entry is listed as “enhances alcohol consumption” and the “CB2R agonist or antagonist effect on alcohol consumption” value was “absent”.
As to `CCCCCc1cc(O)c2c(c1)OC(C)(C)[C@@H]1CCC(C)=C[C@@H]21` [THC, tetrahydrocannabinol], the “Behavioral effects of THC: time and number of immobility” value in the assay on BTBR mice is “BTBR mice are insensitive to the effects of THC”.
In the case of `CC(=O)Oc1ccc2c3c1O[C@H]1[C@@H](OC(C)=O)C=C[C@H]4[C@@H](C2)N(C)CC[C@@]341` [heroin], the “Cnr2 gene transcripts in the brain” value in the assay with Cnr2 gene transcripts is recorded as “increased Cnr2 gene transcripts”.
